{
  "source": "patent US20090220982A1",
  "about": "“COMPOSITIONS AND METHODS FOR DETERMINING NEPHROTOXICITY” (Achaogen Inc.., priority 2008, published 2009)",
  "key": {"[1]": {"conditions": "cited from earlier work"}, "[2]": {"tested_on": "erythrocytes", "conditions": "cited from earlier work"}, "[3]": {"conditions": "β-thalassemia patients; cited from earlier work"}, "[4]": {"conditions": "co-therapy with gentamicin, guinea pigs; cited from earlier work"}, "[5]": {"conditions": "cited from earlier work", "remark": "listed apart in the source"}, "[6]": {"tested_on": "HK-2 cells", "experiment": "HK-2 in vitro nephrotoxicity assay (CASPASEGLO caspase luminescence)", "type": "cell-based, human", "procedure": "An in vitro nephrotoxicity assay was conducted using the human kidney epithelial cell line, HK-2.\nHK-2 cells were cultured in KSFM, with 5 ng/mL epidermal growth factor (EGF) and 0.05 mg/mL bovine pituitary extract (BPE). Cells were maintained at sub-confluence and used to initiate the assay when they reached 80% confluence.\nDiluted compounds were added to plates. The plates were subsequently returned to the incubator overnight.\nLuminescence was detected using a plate reading luminometer.\nA human kidney proximal tubule cell line, HK-2 (ATCC #CRL-2190) is cultured in Keratinocyte-Serum Free Medium (K-SFM) (Invitrogen 17005-042) with 5 ng/mL of human recombinant epidermal growth factor (EGF) and 0.05 mg/mL Bovine Pituitary Extract (BPE). Culture medium containing EGF and/or BPE is not filtered subsequent to growth factor addition, and fresh growth factors are added to the culture medium after two weeks. The HK-2 cells are split so that they are 80% confluent on the day they need to be plated into 96 well plates. These cells are not allowed to become confluent.\nRemove the HK-2 cells from the plate using trypsin-EDTA. Wash the plate with D-PBS. Add 0.5 mL trypsin, and incubate for 1 minute at room temperature or until cells start to lift off plate. Inactivate trypsin and harvest cells by adding prewarmed culture medium (37° C.) to the plate. […]\nThaw the CASPASEGLO reagents (CASPASEGLO 3/7 Assay, Promega G8093 10×10 mL or G8092 100 mL) at room temperature. For reagent addition to plates after 31 hour compound incubation: (i) remove plates from incubator (30.5 hours after adding compounds) for approximately 30 minutes to bring to room temperature; (ii) mix CASPASEGLO reagents according to manufacturer's instructions; (iii) add 50 μL of reagent/well to 96 well plates using BioMek®FX with tips 2 mm from bottom of reservoir well (Beckman Coulter); (iv) place plates on shaker platform and shake gently for 30 seconds; (v) incubate at room temperature for 30 minutes; (vi) place plates on shaker platform and shake gently for 30 seconds; and (vii) read plate 30-60 minutes after reagents are added, Analyst™ HT (LJL Biosystems™). The settings for the Analyst™ HT are: (i) default luminescence method; (ii) luminescence height, 1.5 mm; (iii) 5 readings per well; (iv) integration time of 100000 μs; and (v) attenuator out.\nThe average luminescence values are calculated along with the standard deviation of the replicates. The concentration of the aminoglycoside tested is graphed versus the corresponding luminescence reading. The area under the curve (AUC) is calculated for each experimental compound and for gentamicin. The EC50 can then be calculated for each experimental compound and gentamicin, using methods well known in the art."}, "[7]": {"experiment": "14-day rat nephrotoxicity model", "description": "The rat in vivo assays provided information in the form of acute toxicity, changes in Blood Urea Nitrogen (BUN) and serum creatinine levels over time, as well as histopathology changes in the kidneys of animals sacrificed at the end of the study. Elevation in BUN or serum creatinine is one of the markers routinely monitored in the clinic as an indication of aminoglycoside nephrotoxicity."}, "[8]": {"conditions": "patients, cited from earlier work"}, "[9]": {"tested_on": "LLC-PK1 cells", "conditions": "gentamicin introduced by electroporation; cited from earlier work"}, "[10]": {"tested_on": "renal brush border membranes", "conditions": "in vitro; cited from earlier work"}, "[11]": {"conditions": "rats, cited from earlier work"}},
  "note": "Like-named read-outs stand apart in the source and are kept apart here.",
  "data": [
    {"molecule": "O=C(O)c1cccc(O)c1O", "note": "[DHB, 2,3-dihydroxybenzoate]", "values": [
      {"measurement": "elevations in BUN and serum creatinine after gentamicin", "setting": "[1]; rat, gentamicin treatment for eight days", "result": "reduced elevations in blood, urea, nitrogen (BUN) and serum creatinine"},
      {"measurement": "protection from gentamicin nephrotoxicity", "setting": "[1]; rats", "result": "only partial protection from gentamicin nephrotoxicity"},
      {"measurement": "H2O2 induced membrane peroxidation", "setting": "[2]", "result": "inhibits H2O2 induced membrane peroxidation in erythrocytes"},
      {"measurement": "toxicity of oral doses for one year", "setting": "[3]", "result": "no toxicity was observed"},
      {"measurement": "shifts in auditory thresholds", "setting": "[4]", "result": "significantly lower shifts in auditory thresholds"},
      {"measurement": "solubility in aqueous solution", "setting": "[5]", "result": "poor solubility in aqueous solution"}
    ]},
    {"molecule": "NCC[C@H](O)C(=O)N[C@@H]1C[C@H](N)[C@@H](O[C@H]2O[C@H](CN)[C@@H](O)[C@H](O)[C@H]2O)[C@H](O)[C@H]1O[C@H]1O[C@H](CO)[C@@H](O)[C@H](N)[C@H]1O", "note": "[amikacin]", "values": [
      {"measurement": "dose response curve of luminescence signal (induction of apoptosis) / EC50", "setting": "[6]", "result": "did not produce a maximal response at the highest concentration tested"},
      {"measurement": "rank order of nephrotoxicity by EC50 in the in vitro HK-2 assay", "setting": "[6]", "result": "least nephrotoxic aminoglycoside tested"},
      {"measurement": "rank order of relative in vivo nephrotoxicity", "setting": "[7]; rat, in vivo", "result": "followed by amikacin, neomycin, and gentamicin"}
    ]},
    {"molecule": "CC(=O)Oc1ccccc1C(=O)O", "note": "[aspirin]", "values": [
      {"measurement": "hearing loss versus gentamicin alone", "setting": "[8]; intravenous gentamicin and oral aspirin", "result": "significantly less hearing loss"},
      {"measurement": "side effect of aspirin treatment", "setting": "[8]", "result": "caused gastric bleeding in some patients"}
    ]},
    {"molecule": "[H]/N=C(/N)N[C@H]1[C@H](O)[C@@H](O)[C@H](O[C@@H]2O[C@@H](C)[C@](O)(C=O)[C@H]2O[C@@H]2O[C@@H](CO)[C@H](O)[C@@H](O)[C@@H]2NC)[C@@H](N/C(N)=N\\[H])[C@@H]1O", "note": "[streptomycin]", "values": [
      {"measurement": "rank order of relative in vivo nephrotoxicity", "setting": "[7]; rat, in vivo", "result": "least nephrotoxic aminoglycoside tested"}
    ]},
    {"molecule": "gentamicin", "values": [
      {"measurement": "dose response curve of luminescence signal (induction of apoptosis) / EC50", "setting": "[6]; HK-2 cells, highest concentration tested 500 μg/mL, FIG. 2", "result": "produced a full dose response curve over the concentration range tested"},
      {"measurement": "rank order of nephrotoxicity by EC50 in the in vitro HK-2 assay", "setting": "[6]; six compounds, FIG. 3A", "result": "followed by apramycin, gentamicin and neomycin, compound A, and compound B"},
      {"measurement": "apoptosis response", "setting": "[9]", "result": "dose-dependent apoptosis response at much lower gentamicin concentrations"},
      {"measurement": "rank order of relative in vivo nephrotoxicity", "setting": "[7]; 14-day rat model, Example 3, FIG. 4", "result": "followed by amikacin, neomycin, and gentamicin"},
      {"measurement": "rank order of nephrotoxicity by minimum concentration of compound that produced an increase in BUN", "setting": "[7]; 14-day rat model, six compounds, FIG. 3A", "result": "followed by apramycin, gentamicin and neomycin, compound A, and compound B"}
    ]},
    {"molecule": "polyaspartic acid", "values": [
      {"measurement": "aminoglycoside binding to renal brush border membranes", "setting": "[10]", "result": "prevent aminoglycoside binding to renal brush border membranes"},
      {"measurement": "creatinine elevation or histopathological changes", "setting": "[11]; 16 weeks after the two week treatment", "result": "no creatinine elevation or histopathological changes"},
      {"measurement": "gentamicin concentration in kidneys versus gentamicin alone", "setting": "[11]; end of 14 day treatment, co-dosed with polyaspartic acid", "result": "five-fold higher gentamicin concentration in their kidneys"}
    ]}
  ]
}
